1 molecule from paper PMC10052652 (Molecules, 2023) can be followed below.

Data set [1] has as its system HCT116 cells. Description: Cytotoxic activity, MTT assay, HCT116. The format is cell-based, human. Particulars: Homo sapiens, HCT-116, 72 h, read-out: IC50 HCT116, MTT, 72 h. Background: Formazan colour is commonly taken as a measure of viable cells.
The target of data set [2] is T1, acetylcholinesterase (AChE) (Homo sapiens, UniProt P22303). In kind it is biochemical. Conditions: at 100 µM.
T1 sequence (P22303 32-614, species assumed): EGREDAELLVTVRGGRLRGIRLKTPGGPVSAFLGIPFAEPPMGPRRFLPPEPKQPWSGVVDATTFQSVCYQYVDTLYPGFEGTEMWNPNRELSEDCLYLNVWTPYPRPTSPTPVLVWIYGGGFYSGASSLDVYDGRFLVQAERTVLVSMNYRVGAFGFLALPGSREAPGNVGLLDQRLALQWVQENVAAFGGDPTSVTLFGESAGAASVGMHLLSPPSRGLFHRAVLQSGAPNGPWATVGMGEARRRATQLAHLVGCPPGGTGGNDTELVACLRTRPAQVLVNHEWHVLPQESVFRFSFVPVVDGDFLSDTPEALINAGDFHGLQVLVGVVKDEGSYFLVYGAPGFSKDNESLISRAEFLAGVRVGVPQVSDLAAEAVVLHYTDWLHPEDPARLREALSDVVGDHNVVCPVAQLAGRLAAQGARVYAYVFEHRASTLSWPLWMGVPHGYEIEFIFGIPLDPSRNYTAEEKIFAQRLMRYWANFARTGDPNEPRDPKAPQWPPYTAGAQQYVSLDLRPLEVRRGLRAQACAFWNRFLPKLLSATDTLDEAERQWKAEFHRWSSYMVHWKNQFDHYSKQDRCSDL
The target of data set [3] is T1, acetylcholinesterase (AChE). The data set can be described thus: biochemical. Particulars: read-out: Anti ACHE IC50.
Data set [4] relates to MCF7 cells. Description: Cytotoxic activity, MTT assay, MCF7. The format is cell-based, human. Particulars: Homo sapiens, MCF7, 72 h. On the procedure: Optical density was measured at 540 nm. All tests were established in triplicate.
In data set [5] the target is T2, superoxide dismutase (SOD) (Homo sapiens, UniProt P00441). The format is biochemical. Particulars: at 100 µM.
T2 sequence (P00441 whole entry): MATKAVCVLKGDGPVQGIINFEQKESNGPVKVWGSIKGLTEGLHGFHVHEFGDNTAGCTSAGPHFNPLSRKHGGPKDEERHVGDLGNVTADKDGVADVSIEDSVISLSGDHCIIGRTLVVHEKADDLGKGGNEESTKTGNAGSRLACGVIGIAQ
For data set [6], the target named is xanthine oxidase (XOD) (Homo sapiens, UniProt P47989). Description: biochemical. Particulars: read-out: Anti XOD IC50.
Chain of xanthine oxidase (XOD) (P47989 whole entry, species assumed): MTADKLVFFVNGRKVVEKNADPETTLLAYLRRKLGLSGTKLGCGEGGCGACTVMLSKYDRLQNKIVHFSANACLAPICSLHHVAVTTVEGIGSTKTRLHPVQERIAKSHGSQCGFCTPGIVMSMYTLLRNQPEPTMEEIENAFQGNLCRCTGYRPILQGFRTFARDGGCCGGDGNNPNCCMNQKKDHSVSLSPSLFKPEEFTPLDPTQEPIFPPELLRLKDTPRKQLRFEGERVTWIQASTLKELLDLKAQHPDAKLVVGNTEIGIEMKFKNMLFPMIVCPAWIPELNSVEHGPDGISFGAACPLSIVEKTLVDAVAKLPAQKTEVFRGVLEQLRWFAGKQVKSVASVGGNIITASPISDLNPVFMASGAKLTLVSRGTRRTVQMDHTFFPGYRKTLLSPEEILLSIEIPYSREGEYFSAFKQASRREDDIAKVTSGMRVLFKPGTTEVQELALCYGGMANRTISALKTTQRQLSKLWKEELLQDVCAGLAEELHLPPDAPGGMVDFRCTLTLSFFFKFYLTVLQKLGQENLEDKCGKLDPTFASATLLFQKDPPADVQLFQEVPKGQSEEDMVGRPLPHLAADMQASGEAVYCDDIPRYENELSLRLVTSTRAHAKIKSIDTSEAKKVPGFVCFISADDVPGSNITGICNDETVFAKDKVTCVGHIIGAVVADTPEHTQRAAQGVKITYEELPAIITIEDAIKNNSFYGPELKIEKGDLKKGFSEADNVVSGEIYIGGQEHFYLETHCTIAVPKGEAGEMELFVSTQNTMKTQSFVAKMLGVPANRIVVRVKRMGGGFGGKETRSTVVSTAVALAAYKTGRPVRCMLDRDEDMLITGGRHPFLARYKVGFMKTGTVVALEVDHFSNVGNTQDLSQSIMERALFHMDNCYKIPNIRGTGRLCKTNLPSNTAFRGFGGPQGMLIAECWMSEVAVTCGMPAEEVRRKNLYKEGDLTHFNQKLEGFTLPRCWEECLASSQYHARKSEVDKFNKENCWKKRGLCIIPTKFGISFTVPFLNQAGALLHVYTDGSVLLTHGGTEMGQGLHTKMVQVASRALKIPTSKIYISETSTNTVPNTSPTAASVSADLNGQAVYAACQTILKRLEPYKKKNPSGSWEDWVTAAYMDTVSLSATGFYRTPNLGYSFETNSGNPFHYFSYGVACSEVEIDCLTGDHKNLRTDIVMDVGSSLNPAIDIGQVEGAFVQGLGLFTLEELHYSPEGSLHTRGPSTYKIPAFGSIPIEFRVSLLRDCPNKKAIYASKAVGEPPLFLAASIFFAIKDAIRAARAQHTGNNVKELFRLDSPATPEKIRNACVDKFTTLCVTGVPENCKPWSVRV
Data set [7] deals with IGROV-1 cells. Description: Cytotoxic activity, MTT assay, IGROV-1. As for the experimental part: The cancer cell lines used in this study were HCT116 (colorectal carcinoma), IGROV1 (ovarian cancer), OVCAR3 (ovarian cancer), and MCF7 (mammary gland/breast cancer). […] Cell lines were maintained in culture and were incubated at 37 °C in an incubator with 5% CO2 in a humidified atmosphere. All tests were established at 80% of confluence, and viability was estimated with a trypan blue exclusion assay.
The cytotoxic activities of molecules against cancer cell lines were evaluated using an MTT assay. The MTT colorimetric assay was performed using 96-well plates. Cells were seeded in a 96-well plate, at a concentration of 10 × 10^3 cells/well for HCT116 and 12 × 10^3 cells/well for MCF7, IGROV1, and OVAR. Adherent cells were dispatched and incubated at 37 °C overnight in a 5% CO2-enriched atmosphere. Cells in the exponential growth phase were incubated at 37 °C for 72 h, with each tested sample at 50 µg/mL. After that, the medium was removed, and cells were treated with 50 µL of 3-(4,5-dimethylthazolk-2-yl)-2,5-diphenyl tetrazolium bromide (MTT) solution (3 mg/mL in PBS) at 37 °C for 20 to 40 min. To dissolve the […], we added 80 µL of 100% DMSO. Optical density was measured at 540 nm. All tests were established in triplicate. The anti-cancer effect of samples was estimated in terms of growth inhibition percentage.

Data set [8] in a line: ABTS radical cation scavenging assay.
The target of data set [9] is T2, superoxide dismutase (SOD). The data set can be described thus: biochemical. Particulars: read-out: Anti SOD IC50.
Data set [10] has as its system OVCAR-3 cells. Description: Cytotoxic activity, MTT assay, OVCAR-3. The format is cell-based. Particulars: Homo sapiens, OVCAR-3, 72 h, read-out: IC50 OVCAR-3.

Take `COc1cc(-c2cc(=O)c3ccc4c(O)cccc4c3o2)cc(OC)c1OC` [Molecule M18, 7-hydroxy-3′,4′,5′-trimethoxy-α-naphthoflavone]: the IC50 in data set [1] is 45 ± 0.9 µM; in [3] it was more than 100 µM; in [4], more than 50 µM; in data set [6] it was more than 100 µM; in data set [7] (Homo sapiens, IGROV-1, read-out: IC50 IGROV-1) it was more than 100 µM; in data set [8], more than 50 µM. The IC50 is more than 100 µM in data set [9] and more than 50 µM in data set [10]. Also, the “Anti ACHE %” value in data set [2] was 43.3 ± 1.8%. In addition, in data set [5], the “Anti SOD %” value was determined as 32.7 ± 3.9%. Besides, the “Cytotoxic activity against IGROV-1 (in words)” value in data set [7] (at 100 µM) is given as “not active”.

One may read the IC50 as the midpoint of a concentration-inhibition curve.
